The test system of test [1] is vimentin promoter activity (VimPro-GFP) in SW620 cells. Nature of the test: VimPro-GFP EMT reporter assay. On the technique in general: In a reporter assay the amount or activity of a reporter protein is the signal.
Experimental: VimPro-GFP and EcadPro-mCherry reporter assays. VimPiro-GFP: SW620 cells were first transduced with NucLight Red virus (Essen BioSciences) and selected with Zeocin at 200 μg/mL, and then transduced with pCDH-VimPro-GFP-EF1-puro virus and selected with puromycin at 4 μg/mL. The dual fluorescently labeled cells were plated and treated in 3D tumor organoid as described. Tumor organoid images were recorded every 2 hours over a 72 hours period using an incucyte ZOOM content imaging system (Essen BioSciences) or PerkinElmer Phenix imager (PerkinElmer).
Analogs were also assessed for their ability to modulate or reverse EMT using VimPro-GFP and EcadPro-RFP SW620 reporter cells cultured as tumor organoids, determining EC50 dose responses over 72 hours (Table 2).
VimPro-GFP and EcadPro-RFP reporter assays. Stable VimPro-GFP or EcadPro-RFP SW620 reporter cells were generated using pCDH-VimPro-GFP-EF1-puro virus or pCDH-EcadPro-mCherry-EF1-puro virus as previously reported. […] Transduced cells were selected with puromycin at 2 μg/mL. The stable fluorescent labeled reporter cells were then used to generate tumor organoids as described. Tumor organoids were then treated with TOP2A inhibitors at 10 μM for an additional 72 h. Following treatment, tumor organoids were stained with 16 μM of Hoechst 33342 for 1 h, which functions as a nuclear stain for imaging segmentation. Images were taken with a 5× air objective. Z stacks were set at 20 μm apart for a total of 7 layers. Imaging analysis was performed using an Opera Phenix high content screening (HCS) system and Harmony high-content imaging and analysis software interface (PerkinElmer, MA). Nuclei were identified with Hoechst 33342 stain within each layer, and cells were found with either GFP or mCherry channel. The intensities of each fluorescence channel within the cells were calculated and thresholds were set based on the background intensities. Percentages of GFP or mCherry positive cells were calculated and normalized to the DMSO treated group.
VimPro-GFP and EcadPro-RFP reporter assays. Stable VimPro-GFP or EcadPro-RFP SW620 reporter cells were generated using pCDH-VimPro-GFP-EF1-puro virus or pCDH-EcadPro-mCherry-EF1-puro virus as previously reported. […] Transduced cells were selected with puromycin at 2 μg/mL. The stable fluorescent labeled reporter cells were then used to generate tumor organoids as described. Tumor organoids were then treated with TOP2A inhibitors at 10 μM for an additional 72 h. Following treatment, tumor organoids were stained with 16 μM of Hoechst 33342 for 1 h, which functions as a nuclear stain for imaging segmentation. Images were taken with a 5× air objective.
A further test deals with T1, Human TOP2A (Homo sapiens, UniProt P11388).
T1 construct: purchased TopoGEN (Buena Vista, CO)
Nature of the test: TOP2A DNA decatenation assay (kDNA, agarose gel). The following applies: for inhibition at 30 µM: 1 h, read-out: % Inhibition TOP2A (30 μM); for inhibition at 30 µM / % Inhibition TOP2A (30 μM): decatenation, 30 μM fixed concentration; for IC50: decatenation dose response; for TOP2A inhibition, result in words: decatenation screen at 30 μM. The format is biochemical. Here is the method: Inhibition of TOP2A activity. Human TOP2A, kDNA, and assay buffers were obtained from TopoGEN (Buena Vista, CO). The synthesized compounds were screened for their TOP2A inhibitory activity by the intensity of DNA decatenation bands on a DNA gel when compared to the vehicle. Compounds were initially incubated with TOP2A (3 U/reaction) for 20 min at a 30 μM and 1.2% DMSO concentration in a 37° C. incubator without CO2.
The decatenation reaction was initiated immediately after by adding 2 mM ATP and 35 ng/reaction of kDNA, then incubated for 1 hour in a 37° C. water bath. The samples were loaded into a 0.8% agarose gel in 1× Tris-Borate-EDTA (TBE) at a 0.2 μg/mL ethidium bromide concentration and allowed to run in an electrophoretic chamber for 1 hour at 100V. Compounds with the highest inhibitory activity were selected for 2-fold serial dilution dose-response assays (58.6 nM-30 μM). The dose-response assays followed the same protocol with the exception of 4 U/reaction of TOP2A.
Inhibition studies of TOP2A and observed structure activity relationships (SAR). DNA catenation/decatenation or linking/unlinking of DNA is one of the main TOP2A functions essential for regulating DNA topology, and this is ATP dependent. […] Thus, as a starting point, the synthesized analogs were screened against TOP2A-dependent decatenation using 30 μM fixed concentrations, and the DNA from reactions were resolved on 0.8% agarose gels containing ethidium bromide.
Moreover, these studies provided interesting SAR, which shed light on the potential lead drug target binding interactions and affinity, biological activity, and future drug design optimization with this unique class of TOP2A inhibitors.
(§1) TOP2A decatenation assay. Human TOP2A, kDNA, and assay buffers were obtained from TopoGEN (Buena Vista, CO). The synthesized compounds were screened for their TOP2A inhibitory activity by the intensity of DNA decatenation bands on a DNA gel when compared to the vehicle. Compounds were initially incubated with TOP2A (3 U/reaction) for 20 min at a 30 μM and 1.2% DMSO concentration in a 37° C. incubator without CO2. The decatenation reaction was initiated immediately after by adding 2 mM ATP and 35 ng/reaction of kDNA, then incubated for 1 h in a 37° C. water bath. The samples were loaded into a 0.8% agarose gel in 1× Tris-Borate-EDTA (TBE) at a 0.2 μg/mL ethidium bromide concentration and allowed to run in an electrophoretic chamber for 1 h at 100V. Compounds with the highest inhibitory activity were selected for 2-fold serial dilution dose-response assays (58.6 nM-30 μM). The dose-response assays followed the same protocol with the exception of 4 U/reaction of TOP2A,
as §1, with “assays (53.6” for “assays (58.6”, “of TOP2A.” for “of TOP2A,”

For test [2], the system named is E-cadherin promoter activity (EcadPro-RFP) in SW620 cells. In words: EcadPro-RFP (mCherry) EMT reporter assay. The format is cell-based. The following applies: SW620 tumor organoids; for EC50: Table 2, 72 hours, read-out: % E-cadherin upregulation EC50.
Source text: (§2) VimPro-GFP and EcadPro-RFP reporter assays. […] 35(38): p. 4990-9.]
as §2

The subject of test [3] is TOP2A-dependent TCF-transcription in SW620-TOP tumor organoids. Nature of the test: TCF (TOPflash) reporter assay in 3D tumor organoids. In kind it is cell-based. The following applies: for IC50: 72 hours. How it is done: TCF reporter assay in 3D Tumor organoid. Stable engineered cells containing pCDH-TOPflash-luc-EF1-puro were used to generate tumor organoid arrayed in 96-well plates and treated for 72 hours. One-Glo™ luciferase reagent and CellTiter-Glo™ 3D cell viability reagent (Promega) were used to determine the TCF reporter activity in viable cells.
After characterizing 3 and 7 as TOP2A ATP-competitive inhibitors, these compounds were next tested for their ability to inhibit TOP2A-dependent TCF-transcription using the well characterized TOPflash (TOP) luminescent reporter, which was used to generate a stably transduced SW620-TOP reporter cells as described previously (Zhou, et al., Oncogene 2016, 35:4990-9). These cells were used to generate single 3D tumor organoids (700 μm in diameter) uniformly arrayed in 96-well plates, which mimic aspects of tumor function observed in vivo. […] Like neo, the mode of action of compounds 3 and 7 also results in significant antitumor activity (FIGS. 3E-3H). […] In other words, the activity of 3 and 7 is long lasting, suppressing CSC stemness and related tumorigenicity. EMT is a major driving force promoting tumor cell invasion and metastasis. […] Tumor organoids were dissociated, and viable cells were washed and plated into the top chamber of 96-well invasion plate coated with Matrigel and incubated for an additional 72 hours without adding any additional compound. […] Taken together, the biological activity of 3 and 7 is consistent with the activity of neo, inhibiting TOP2A-dependent TCF-transcription that in turn reverses EMT while inhibiting the associated tumorigenic properties of mCRC.
A similar trend in IC50 values was observed compared to TOP2A enzyme studies, further supporting our proposed mechanism of action as inhibition of TOP2A-dependent TCF-transcription.
3D Tumor organoid TOPflash reporter assay. […] 35(38): p. 4990-9.] were used to generate tumor organoids arrayed in 96-well plates and treated for 72 h with TOP2A inhibitors. One-Glo™ luciferase reagent and CellTiter-Glo™ 3D cell viability reagent (Promega, WI) were used to determine the TCF reporter activity in viable cells. Briefly, reagents were added to the spheroids at 1:1 ratio (v:v) and the plates were placed on an orbital shaker (300 rpm) for 10 min at room temperature before the luminescence was read with Envision plate reader (PerkinElmer, MA). TCF reporter activity was normalized to organoid viability and inhibitors treated conditions were normalized to DMSO treated controls.

The mark [4] stands for this setting: Homo sapiens, SW-620, 72 h, read-out: % Vimentin downregulation EC50 (μM).
Where [5] appears, read: read-out: IC50 TOP2A inhibition.
Where [6] appears, read: Homo sapiens, SW-620, Table 2, SW620 tumor organoids, read-out: % TCP inhibition IC50.
Where [7] appears, read: SW620-TOP tumor organoids, read-out: IC50 inhibition of TCF-transcription.
[8] abbreviates: read-out: % Vimentin downregulation EC50, Table 2, SW620 tumor organoids, 72 hours.
The mark [9] stands for this setting: Table 1, read-out: % Inhibition TOP2A (IC50 Values).

Structures are written as SMILES. Values joined by “and” are separate entries in the source; they are usually repeats but may differ in a detail not shown here. Identical values can stand only once. “Also recorded” adds a separate entry of the source. Like-named read-outs stand apart in the source and are kept apart here.

T1 sequence (P11388 whole entry): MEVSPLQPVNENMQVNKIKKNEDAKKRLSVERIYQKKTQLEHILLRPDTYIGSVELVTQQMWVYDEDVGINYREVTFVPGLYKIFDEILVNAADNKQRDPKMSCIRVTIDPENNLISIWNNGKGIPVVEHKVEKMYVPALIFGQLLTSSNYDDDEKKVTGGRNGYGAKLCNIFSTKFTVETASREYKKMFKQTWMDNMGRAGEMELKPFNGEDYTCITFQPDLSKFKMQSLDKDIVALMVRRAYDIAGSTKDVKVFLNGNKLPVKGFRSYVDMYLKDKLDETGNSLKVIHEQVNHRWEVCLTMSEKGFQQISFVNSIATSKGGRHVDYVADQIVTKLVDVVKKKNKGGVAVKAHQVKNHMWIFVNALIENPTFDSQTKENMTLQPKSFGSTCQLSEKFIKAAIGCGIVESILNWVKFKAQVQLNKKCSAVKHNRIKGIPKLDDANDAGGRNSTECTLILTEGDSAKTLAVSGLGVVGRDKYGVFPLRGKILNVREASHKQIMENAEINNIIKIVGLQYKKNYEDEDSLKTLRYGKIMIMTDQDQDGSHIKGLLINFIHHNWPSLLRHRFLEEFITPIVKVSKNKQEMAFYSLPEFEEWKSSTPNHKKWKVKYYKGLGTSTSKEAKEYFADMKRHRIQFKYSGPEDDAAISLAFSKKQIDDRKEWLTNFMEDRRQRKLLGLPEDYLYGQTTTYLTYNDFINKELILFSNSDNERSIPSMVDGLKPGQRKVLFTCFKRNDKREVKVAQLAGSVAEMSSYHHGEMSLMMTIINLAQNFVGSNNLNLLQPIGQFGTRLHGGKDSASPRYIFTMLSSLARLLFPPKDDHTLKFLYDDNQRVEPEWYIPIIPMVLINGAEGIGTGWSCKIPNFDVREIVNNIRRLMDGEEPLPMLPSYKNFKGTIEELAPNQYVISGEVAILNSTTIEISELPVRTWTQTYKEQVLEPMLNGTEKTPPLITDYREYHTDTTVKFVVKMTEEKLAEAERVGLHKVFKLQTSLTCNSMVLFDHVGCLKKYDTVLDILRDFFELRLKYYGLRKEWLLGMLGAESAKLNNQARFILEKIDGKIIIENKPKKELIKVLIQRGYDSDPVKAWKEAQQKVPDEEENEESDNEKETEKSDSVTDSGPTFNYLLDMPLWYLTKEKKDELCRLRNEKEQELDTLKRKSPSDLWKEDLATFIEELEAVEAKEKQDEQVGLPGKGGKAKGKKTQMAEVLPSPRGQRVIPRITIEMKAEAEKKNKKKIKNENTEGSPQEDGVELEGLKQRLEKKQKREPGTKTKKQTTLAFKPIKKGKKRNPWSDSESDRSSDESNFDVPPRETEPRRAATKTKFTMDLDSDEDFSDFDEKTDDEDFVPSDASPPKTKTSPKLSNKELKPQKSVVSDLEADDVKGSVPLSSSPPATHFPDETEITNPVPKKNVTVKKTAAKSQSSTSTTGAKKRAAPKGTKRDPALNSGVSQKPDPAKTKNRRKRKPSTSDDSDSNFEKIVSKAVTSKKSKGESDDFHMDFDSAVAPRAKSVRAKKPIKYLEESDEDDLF

With `O=C(CCN1CCOCC1)Nc1ccc2c(-c3cc(F)ccc3O)ccnc2c1O` [Analog 42], the EC50 amounted to 13.2 µM in test [1] (setting [4]) and 5.9 µM in test [2] (Homo sapiens, SW-620). For the same compound, the inhibition at 30 µM at Human TOP2A (Table 1) was 90%. In addition, the values for the IC50 (on Human TOP2A (setting [5]); in test [3] (setting [6]); in test [3] (setting [7])) were 0.6 µM, 3.2 µM and 3.2 µM, respectively.

Regarding `CC(=O)Nc1ccc2c(-c3cc(F)ccc3O)ccnc2c1O` [Analog 7], the concentration for a half-maximal effect (EC50) in test [1] (setting [4]) amounted to 10.8 µM; in test [2] (Homo sapiens, SW-620) it was 5.3 µM. Besides, the “vimentin downregulation (VimPro-GFP), in words” value in test [1] (SW620 tumor organoids) is “dose-dependent downregulation of vimentin”. Moreover, the inhibition at 30 µM at Human TOP2A (Table 1) came to 99%. Also, the IC50 at Human TOP2A (setting [5]) was 5.81 µM and 5.8 µM; in test [3] (setting [6]), 6 µM. Besides, the “TOP2A inhibition, result in words” value at Human TOP2A was “complete enzyme inhibition”. In addition, in test [2], the “E-cadherin upregulation (EcadPro-RFP), in words” value is listed as “upregulation of E-cadherin”. Moreover, the “inhibition of TCF-transcription (TOP-activity), in words” value in test [3] (SW620 tumor organoids, TOPflash reporter) is reported as “significantly inhibit TOP-activity; also recorded: significantly inhibit TOP2A-dependent TCF-transcription”.

For the compound `Cn1ccc2c(c1=O)C(=O)c1nccc3c1C2NC1=CCC=CC13` (stereo not drawn) [neo, neoamphimedine, reference compound], at Human TOP2A, the “TOP2A inhibition, result in words” value is on record as “significantly inhibits TOP2A mediated DNA decatenation”.

`CC(C)(C)C(=O)Nc1ccc2c(-c3ccccc3)ccnc2c1O` [Analog 39]: the figures for the EC50 in test [1] (setting [8]) and in test [2] were 4.7 µM and 3.1 µM, respectively. Besides, the concentration for half-maximal inhibition (IC50) on Human TOP2A (setting [9]) was 1.3 µM; on Human TOP2A (setting [5]), around 1 µM; in test [3] (Table 2, SW620 tumor organoids, read-out: % TCP inhibition IC50), 4.7 µM. The “% Inhibition TOP2A (30 μM)” value at Human TOP2A (Table 1) came out at 97.0%.

With `CC(=O)Nc1ccc2c(-c3ccoc3)ccnc2c1O` [Analog 56], the concentration for a half-maximal effect (EC50) was 25.7 µM in test [1] (setting [4]) and 10.6 µM in test [2] (Homo sapiens, SW-620). The inhibition at 30 µM on Human TOP2A (Table 1) stood at 86%. In addition, the results for the concentration for half-maximal inhibition (IC50) (on Human TOP2A (setting [9]); in test [3] (setting [6])) were 6.4 µM and 7 µM, respectively.

Take `CC(=O)Nc1ccc(-c2ccnc3c(O)c(NC(C)=O)ccc23)cc1` [Analog 35]: the 50% effective concentration (EC50) in test [1] (setting [8]) stood at 9.5 µM; in test [2] it was 5.5 µM. Besides, the results for the 50% inhibitory concentration (IC50) (at Human TOP2A (setting [9]); in test [3] (setting [7])) were 1.9 µM and 2 µM, respectively. On Human TOP2A (Table 1), the “% Inhibition TOP2A (30 μM)” value was 97.0%. For the same compound, the “TOP2A inhibition, result in words” value on Human TOP2A is given as “restored inhibitory activity against TOP2A”.

By EC50 is commonly meant the midpoint of the concentration-response curve. By inhibition is commonly meant the change of the read-out against control, counted positive when it falls. Broadly, the IC50 is the concentration at which inhibition is half-maximal.
